Test results as given in US20120157452A1, “1H-PYRAZOLO[3,4-B] PYRIDINE COMPOUNDS FOR INHIBITING RAF KINASE” (GENENTECH, INC., priority 2009, published 2012).

Target: T1, V600E full-length B-Raf (Homo sapiens, UniProt P15056, V600E)
T1 construct: made in house; host or cells: Sf9 insect cells (baculovirus)
Assay: B-Raf IC50 assay: incorporation of radio labeled phosphate from [γ-33P]ATP into FSBA-modified wild-type MEK
Assay type: biochemical
Source text: Determining the activity of Raf in the sample is possible by a number of direct and indirect detection methods (US 2004/0082014). Activity of human recombinant B-Raf protein may be assessed in vitro by assay of the incorporation of radio labeled phosphate to recombinant MAP kinase (MEK), a known physiologic substrate of B-Raf, according to US 2004/0127496 and WO 03/022840. The activity/inhibition of V600E full-length B-Raf was estimated by measuring the incorporation of radio labeled phosphate from [γ-^33]ATP into FSBA-modified wild-type MEK (see Biological Example 1).
Activity of human recombinant B-Raf protein may be assessed in vitro by assay of the incorporation of radio labeled phosphate to recombinant MAP kinase (MEK), a known physiologic substrate of B-Raf, according to US 2004/0127496 and WO 03/022840. Catalytically active human recombinant B-Raf protein is obtained by purification from sf9 insect cells infected with a human B-Raf recombinant baculovirus expression vector.
The activity/inhibition of V600E full-length B-Raf was estimated by measuring the incorporation of radio labeled phosphate from [γ-^33]ATP into FSBA-modified wild-type MEK. The 30-μL, assay mixtures contained 25 mM Na Pipes, pH 7.2, 100 mM KCl, 10 mM MgCl2, 5 mM β-glycerophosphate, 100 μM Na Vanadate, 4 μM ATP, 500 nCi [γ-^33P]ATP, 1 μM FSBA-MEK and 20 nM V600E full-length B-Raf. Incubations were carried out at 22° C. in a Costar 3365 plate (Corning). Prior to the assay, the B-Raf and FSBA-MEK were preincubated together in assay buffer at 1.5× (20 μL of 30 nM and 1.5 μM, respectively) for 15 minutes, and the assay was initiated by the addition of 10 μL of […]. Following the 60-minute incubation, the assay mixtures were quenched by the addition of 100 μL of 25% TCA, the plate was mixed on a rotary shaker for 1 minute, and the product was captured on a Perkin-Elmer GF/B filter plate using a Tomtec Mach III Harvester. After sealing the bottom of the plate, 35 μL of Bio-Safe II (Research Products International) scintillation cocktail were added to each well and the plate was top-sealed and counted in a Topcount NXT (Packard).

[1] = 4 μM ATP, 60-minute incubation, representative data of multiple tests

T1 sequence (P15056 whole entry V600E): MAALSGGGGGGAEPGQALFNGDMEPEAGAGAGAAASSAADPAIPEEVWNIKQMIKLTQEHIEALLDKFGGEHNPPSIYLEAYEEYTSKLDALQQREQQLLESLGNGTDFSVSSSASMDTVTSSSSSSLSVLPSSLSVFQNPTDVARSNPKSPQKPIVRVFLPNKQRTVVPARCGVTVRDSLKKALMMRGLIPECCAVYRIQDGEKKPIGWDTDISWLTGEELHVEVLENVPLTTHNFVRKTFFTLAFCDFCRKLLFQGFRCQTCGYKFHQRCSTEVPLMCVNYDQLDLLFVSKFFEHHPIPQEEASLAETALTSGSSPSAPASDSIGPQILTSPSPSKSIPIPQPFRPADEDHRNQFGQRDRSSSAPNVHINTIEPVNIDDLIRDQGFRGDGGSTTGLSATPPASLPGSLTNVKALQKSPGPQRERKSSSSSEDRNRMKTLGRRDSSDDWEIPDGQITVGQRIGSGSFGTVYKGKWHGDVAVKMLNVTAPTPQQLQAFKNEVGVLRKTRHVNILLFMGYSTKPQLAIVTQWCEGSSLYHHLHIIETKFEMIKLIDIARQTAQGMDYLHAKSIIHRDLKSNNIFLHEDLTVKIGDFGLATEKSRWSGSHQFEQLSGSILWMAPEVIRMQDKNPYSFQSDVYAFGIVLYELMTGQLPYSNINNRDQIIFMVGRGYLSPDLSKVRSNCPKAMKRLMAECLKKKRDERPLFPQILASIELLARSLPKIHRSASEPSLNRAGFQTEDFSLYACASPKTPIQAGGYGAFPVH

SMILES	IC50 [1]	IC50 (bound stated)
COc1n[nH]c2ncc(NC(=O)c3c(F)cc(F)c(OCc4ccccc4)c3F)cc12 [Example 32, 3-(benzyloxy)-2,4,6-trifluoro-N-(3-methoxy-1H-pyrazolo[3,4-b]pyridin-5-yl)benzamide]	0.0349 µM	< 0.1 µM
COc1n[nH]c2ncc(NC(=O)c3c(F)ccc(OCc4ccccc4)c3Cl)cc12 [Example 33, 3-(benzyloxy)-2-chloro-6-fluoro-N-(3-methoxy-1H-pyrazolo[3,4-b]pyridin-5-yl)benzamide]	0.0172 µM	< 0.1 µM
Cc1n[nH]c2ncc(NC(=O)c3c(Cl)ccc(OCc4ccccc4)c3F)cc12 [Example 34, 3-(benzyloxy)-6-chloro-2-fluoro-N-(3-methyl-1H-pyrazolo[3,4-b]pyridin-5-yl)benzamide]	0.00483 µM	< 0.1 µM
O=C(Nc1cnc2[nH]nc(C3CC3)c2c1)c1c(Cl)ccc(OCc2ccccc2)c1F [Example 35, 3-(benzyloxy)-6-chloro-N-(3-cyclopropyl-1H-pyrazolo[3,4-b]pyridin-5-yl)-2-fluorobenzamide]	0.0021 µM	< 0.1 µM
COc1n[nH]c2ncc(NC(=O)c3c(Cl)ccc(OCc4cccnc4)c3F)cc12 [Example 36, 6-chloro-2-fluoro-N-(3-methoxy-1H-pyrazolo[3,4-b]pyridin-5-yl)-3-(pyridin-3-ylmethoxy)benzamide]	0.0375 µM	< 0.1 µM
COc1n[nH]c2ncc(NC(=O)c3c(Cl)ccc(OCc4cscn4)c3F)cc12 [Example 37, 6-chloro-2-fluoro-N-(3-methoxy-1H-pyrazolo[3,4-b]pyridin-5-yl)-3-(thiazol-4-ylmethoxy)benzamide]	0.0038 µM	< 0.1 µM
COc1n[nH]c2ncc(NC(=O)c3c(Cl)ccc(OCc4cccc(C)n4)c3F)cc12 [Example 38, 6-chloro-2-fluoro-N-(3-methoxy-1H-pyrazolo[3,4-b]pyridin-5-yl)-3-((6-methylpyridin-2-yl)methoxy)benzamide]	0.0151 µM	< 0.1 µM
COc1n[nH]c2ncc(NC(=O)c3c(Cl)ccc(OCc4ccncc4)c3F)cc12 [Example 39, 6-chloro-2-fluoro-N-(3-methoxy-1H-pyrazolo[3,4-b]pyridin-5-yl)-3-(pyridin-4-ylmethoxy)benzamide]	0.0642 µM	< 0.1 µM
COc1n[nH]c2ncc(NC(=O)c3c(Cl)ccc(OCc4ccncn4)c3F)cc12 [Example 40, 6-chloro-2-fluoro-N-(3-methoxy-1H-pyrazolo[3,4-b]pyridin-5-yl)-3-(pyrimidin-4-ylmethoxy)benzamide]	0.027 µM	< 0.1 µM
COc1n[nH]c2ncc(NC(=O)c3c(Cl)ccc(OCc4ncccn4)c3F)cc12 [Example 41, 6-chloro-2-fluoro-N-(3-methoxy-1H-pyrazolo[3,4-b]pyridin-5-yl)-3-(pyrimidin-2-ylmethoxy)benzamide]	0.152 µM	< 0.5 µM
COc1n[nH]c2ncc(NC(=O)c3c(Cl)ccc(OCc4ccc(C(F)(F)F)nc4)c3F)cc12 [Example 43, 6-chloro-2-fluoro-N-(3-methoxy-1H-pyrazolo[3,4-b]pyridin-5-yl)-3-((6-(trifluoromethyl)pyridin-3-yl)methoxy)benzamide]	0.00263 µM	< 0.1 µM
COc1n[nH]c2ncc(NC(=O)c3c(Cl)ccc(OCc4ccc(C)cn4)c3F)cc12 [Example 44, 6-chloro-2-fluoro-N-(3-methoxy-1H-pyrazolo[3,4-b]pyridin-5-yl)-3-((5-methylpyridin-2-yl)methoxy)benzamide]	0.00064 µM	< 0.1 µM
COc1n[nH]c2ncc(NC(=O)c3c(Cl)ccc(OCc4ccc(Cl)cn4)c3F)cc12 [Example 45, 6-chloro-3-((5-chloropyridin-2-yl)methoxy)-2-fluoro-N-(3-methoxy-1H-pyrazolo[3,4-b]pyridin-5-yl)benzamide]	0.00053 µM	< 0.1 µM
COc1n[nH]c2ncc(NC(=O)c3c(Cl)ccc(OCc4ccc(C)nc4)c3F)cc12 [Example 46, 6-chloro-2-fluoro-N-(3-methoxy-1H-pyrazolo[3,4-b]pyridin-5-yl)-3-((6-methylpyridin-3-yl)methoxy)benzamide]	0.00609 µM	< 0.1 µM
COc1n[nH]c2ncc(NC(=O)c3c(Cl)ccc(OCc4ccc(I)cc4)c3F)cc12 [Example 47, 6-chloro-2-fluoro-3-(4-iodobenzyloxy)-N-(3-methoxy-1H-pyrazolo[3,4-b]pyridin-5-yl)benzamide]	0.00414 µM	< 0.1 µM
COc1n[nH]c2ncc(NC(=O)c3c(Cl)ccc(OCc4ccc(Br)cc4)c3F)cc12 [Example 48, 3-(4-bromobenzyloxy)-6-chloro-2-fluoro-N-(3-methoxy-1H-pyrazolo[3,4-b]pyridin-5-yl)benzamide]	0.00168 µM	< 0.1 µM
COc1n[nH]c2ncc(NC(=O)c3c(Cl)ccc(OCc4ccc(S(C)(=O)=O)cc4)c3F)cc12 [Example 49]	0.00391 µM	< 0.1 µM
COc1n[nH]c2ncc(NC(=O)c3c(Cl)ccc(OCc4cccc(Cl)c4)c3F)cc12 [Example 50, 6-chloro-3-(3-chlorobenzyloxy)-2-fluoro-N-(3-methoxy-1H-pyrazolo[3,4-b]pyridin-5-yl)benzamide]	0.00122 µM	< 0.1 µM
COc1n[nH]c2ncc(NC(=O)c3c(Cl)ccc(OCc4ccc(C#N)cc4)c3F)cc12 [Example 51, 6-chloro-3-(4-cyanobenzyloxy)-2-fluoro-N-(3-methoxy-1H-pyrazolo[3,4-b]pyridin-5-yl)benzamide]	0.00201 µM	< 0.1 µM
COc1n[nH]c2ncc(NC(=O)c3c(Cl)ccc(OCc4scnc4C)c3F)cc12 [Example 52, 6-chloro-2-fluoro-N-(3-methoxy-1H-pyrazolo[3,4-b]pyridin-5-yl)-3-((4-methylthiazol-5-yl)methoxy)benzamide]	0.0704 µM	< 0.1 µM
COc1n[nH]c2ncc(NC(=O)c3c(Cl)ccc(OCc4nccs4)c3F)cc12 [Example 53, 6-chloro-2-fluoro-N-(3-methoxy-1H-pyrazolo[3,4-b]pyridin-5-yl)-3-(thiazol-2-ylmethoxy)benzamide]	0.0132 µM	< 0.1 µM
COc1n[nH]c2ncc(NC(=O)c3c(Cl)ccc(OCc4ccco4)c3F)cc12 [Example 54, 6-chloro-2-fluoro-3-(furan-2-ylmethoxy)-N-(3-methoxy-1H-pyrazolo[3,4-b]pyridin-5-yl)benzamide]	0.00336 µM	< 0.1 µM
CCc1ccc(COc2ccc(Cl)c(C(=O)Nc3cnc4[nH]nc(OC)c4c3)c2F)cc1 [Example 55, 6-chloro-3-(4-ethylbenzyloxy)-2-fluoro-N-(3-methoxy-1H-pyrazolo[3,4-b]pyridin-5-yl)benzamide]	0.00147 µM	< 0.1 µM
COc1ccc(COc2ccc(Cl)c(C(=O)Nc3cnc4[nH]nc(OC)c4c3)c2F)cc1 [Example 56, 6-chloro-2-fluoro-N-(3-methoxy-1H-pyrazolo[3,4-b]pyridin-5-yl)-3-(4-methoxy-benzyloxy)benzamide]	0.00131 µM	< 0.1 µM
COc1n[nH]c2ncc(NC(=O)c3c(Cl)ccc(OCc4cnccn4)c3F)cc12 [Example 57, 6-chloro-2-fluoro-N-(3-methoxy-1H-pyrazolo[3,4-b]pyridin-5-yl)-3-(pyrazin-2-ylmethoxy)benzamide]	0.026 µM	< 0.1 µM
